Structures are written as SMILES.

Assay [1] deals with T1, recombinant PCSK9 (Homo sapiens, UniProt Q8NBP7). The assay can be described thus: DiI-LDL Uptake Assay in HepG2 cells with recombinant PCSK9. It is filed as cell-based. The settings on record: 2.5 ug/mL PCSK9, read-out: Uptake Assay: % Inhibition of 2.5 ug/mL recombinant PCSK9 @ X compound dose; for inhibition at 0.313 µM: 0.313 uM compound; for inhibition at 10 µM: 10 uM compound; for inhibition at 1.25 µM: 1.25 uM compound. How it is done: (§1) The cells were incubated in a 96-well plate for a total of 16 h in the absence or presence of recombinant PCSK9 (final concentration 2.5 ug/ml) protein alone or recombinant PCSK9 protein pre-mixed with indicated concentration of experimental compounds (Cmpd #). After 16 h, DiI-LDL (final concentration 5 ug/ml) was added to the incubation mixtures. After 4 h, cells are stained with Hoechst 33342 for 30 minutes, then rinsed with phosphate buffered saline, and then a final volume of 100 ul phosphate buffered saline was added to each well. The fluorescence was measured (DiI: excitation at 550 nm and emission at 590 nm; Hoechst: excitation at 355 nm, emission at 460 nm). […] The cells were incubated in 24-well plates for a total of 6 h in the absence or presence of recombinant PCSK9 protein (final concentration of 5.0 ug/ml), or in the presence of PCSK9 protein mixed with indicated concentration of experimental compound (Cmpd #). After 6 hours, the cells were released from the plate, stained with anti-LDLR antibody, then rinsed, counterstained with DAN, and then measured by fluorescence activated cell sorting (FACS). The percent recombinant PCSK9 inhibition was calculated as [‘Compound Dose LDLR Fluorescence’-‘5.0 ug/ml PCSK9-treated LDLR Fluorescence’]/[‘PCSK9 Basal LDLR Fluorescence’-‘5.0 ug/ml PCSK9-treated LDLR Fluorescence’]×100%.
T1 sequence (Q8NBP7 153-692): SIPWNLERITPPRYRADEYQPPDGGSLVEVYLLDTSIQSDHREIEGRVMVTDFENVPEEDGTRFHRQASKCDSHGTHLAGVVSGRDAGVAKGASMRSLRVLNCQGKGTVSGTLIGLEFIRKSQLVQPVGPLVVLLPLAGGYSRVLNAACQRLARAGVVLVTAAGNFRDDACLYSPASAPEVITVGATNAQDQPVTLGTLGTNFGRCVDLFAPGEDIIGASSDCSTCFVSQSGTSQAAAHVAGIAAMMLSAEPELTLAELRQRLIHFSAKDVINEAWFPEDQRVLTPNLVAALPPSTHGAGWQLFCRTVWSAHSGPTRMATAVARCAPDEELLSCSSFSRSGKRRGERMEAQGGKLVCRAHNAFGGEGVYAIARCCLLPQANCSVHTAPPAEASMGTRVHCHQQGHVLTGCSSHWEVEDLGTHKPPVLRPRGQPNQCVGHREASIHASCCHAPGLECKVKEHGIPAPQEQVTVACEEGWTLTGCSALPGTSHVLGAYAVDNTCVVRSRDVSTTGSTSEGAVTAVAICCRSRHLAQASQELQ
Cellular DiI-LDL uptake can be measured using protocols adapted from Benjannet et al., “Effects of the prosegment and pH on the activity of PCSK9: evidence for additional processing events” J Biol Chem. 285(52): 40965-40978 (2010) and “Composition and Methods of Use of Small Molecules as Binding Ligands for the Modulation of Proprotein Convertase Subtilisin/Kexin Type 9 (PCSK9) Protein Activity” (WO2016029037), which are incorporated by reference in their entirety.
Cells, such as HepG2, HuH7, FL83B, or a cell line transfected with a short-hairpin PCSK9 knockdown sequence such as HepG2/shPCSK9, HuH7/shPCSK9, or FL83B/shPCSK9 are plated and cultured at 37° C. for 12-24 h. Culture media is removed and replaced with fresh lipoprotein-depleted culture media supplemented with 5 ug/mL of DiI-LDL (Kalen Biomedical) or lipoprotein-depleted culture media supplemented with 5 ug/mL of Dil-LDL plus a predetermined concentration of recombinant PCSK9, for example a 10 nM final concentration of PCSK9. Lipoprotein-depleted culture media can be composed of DMEM (Invitrogen) with 10% lipoprotein-depleted fetal bovine serum (Kalen Biomedical) and supplemented with penicillin-streptomycin (Life Technologies). Cells are dosed with small molecule test compounds at doses ranging from 0 nM to 100 uM.
Following an incubation period of specified length, such as 6 hours, Hoechst 33342 (AnaSpec) stain is added to the cell media per manufacturer's instructions and incubated for a specified length (e.g., 30 minutes). The lipoprotein-depleted media is removed and cells rinsed three times with phosphate buffered saline. A final volume of phosphate buffered saline is added back to the wells. The DiI fluorescence is measured with a plate reader using an exciting wavelength of 550 nm and the resulting emission at 590 nm is measured. The Hoechst stain fluorescence is measured with a plate reader using an exciting wavelength of 355 nm and the resulting emission at 460 nm is measured.
Cells are analyzed by for both Hoechst stain (DNA content) and DiI-LDL fluorescence. Cells incubated with small molecule compounds that are inhibitors of PCSK9 will be expected to show increased amounts of DiI-LDL fluorescence, relative to control (no compound) specimens, and cells incubated with small molecule compounds that are activators of PCSK9 will be expected to show decreased amounts of DiI-LDL fluorescence relative to control (no compound) specimens.

Assay [2] deals with T1, recombinant PCSK9. The assay is described as follows: LDLR FACS (flow) Assay in HuH7 cells with recombinant PCSK9. The assay is classed as cell-based. The settings on record: 5.0 ug/mL PCSK9, read-out: LDLR Flow Assay: % Inhibition of 5.0 ug/mL recombinant PCSK9 @ X compound dose; for inhibition at 5 µM: Huh-7, 5 uM compound. Here is the method:
as §1
LDLR levels can be measured using flow cytometry or fluorescence activated cell sorting (FACS) using protocols adapted from Benjannet et al., “Effects of the prosegment and pH on the activity of PCSK9: evidence for additional processing events” J Biol Chem. 285(52): 40965-40978 (2010) and “Composition and Methods of Use of Small Molecules as Binding Ligands for the Modulation of Proprotein Convertase Subtilisin/Kexin Type 9 (PCSK9) Protein Activity” (WO2016029037), which are incorporated by reference in their entirety.
Cells, such as HepG2, HuH7, FL83B, or a cell line transfected with a short-hairpin PCSK9 knockdown sequence such as HepG2/shPCSK9, HuH7/shPCSK9, or FL,83B/shPCSK9 are plated and cultured at 37° C. for 12-24 h. Culture media is removed and replaced with fresh culture media or culture media plus a predetermined amount of recombinant PCSK9, for example a 10 nM final concentration of PCSK9. Cell culture media can be composed of DMEM (Invitrogen) with 10% fetal bovine serum (Life Technologies) supplemented with penicillin-streptomycin (Life Technologies). Cells are dosed with small molecule test compounds at doses ranging from 0 nM to 100 uM
Following an incubation period of specified length, such as 6 hours, the media is removed and the cells are rinsed three times with a rinse solution (i.e., Dulbecco's phosphate buffered saline (D-PBS, Life Technologies) supplemented with 0.5% bovine serum albumin (BSA, Sigma) and 1 g/L glucose (Sigma)). The fluid is then removed, and cells are released from the plate using TrypLE Express (Life Technologies) per manufacturer's recommend procedures, such as incubation for 5-10 minutes at 37° C. The TyrpLE-Cell suspension is then transferred to 15 mL conical tubes, volume is increased to 2 mL with D-PBS supplemented with 0.5% BSA and […] glucose, and the tubes are centrifuged at 250× gravity for 10 minutes. Following centrifugation, the supernatant is aspirated and the cell pellet is resuspended in 100 uL D-PBS containing 0.5% BSA and […] glucose, and cells are labeled with anti-LDLR antibody per the manufacturer's recommended procedure. The cells are then pelleted by centrifugation, resuspended in 300 uL PBS and counterstained with 4′,6-Diamidino-2-phenylindole (DAPI, Cayman Chemical) as a cell viability marker, other cell viability markers such as 7-aminoactinomycin D (7AAD, Life Technologies) have also been described in the art.
Cells are analyzed for both cell viability marker (dead cells) and LDLR in live cells using a flow cytometer per the manufacturer's operating manual. […]

On to `c1ccc(-c2ccc3c(c2)CNCC3)cc1` [Compound 1, 7-phenyl-1,2,3,4-tetrahydroisoquinoline], for which, at recombinant PCSK9 [1], the inhibition at 0.313 µM is approximately 45% and the inhibition at 10 µM was more than 100%. On recombinant PCSK9 [2] (Huh-7, 0.625 uM compound), the inhibition at 0.625 µM is approximately 10%. For the same compound, the inhibition at 1.25 µM on recombinant PCSK9 [2] (Huh-7, 1.25 uM compound) was approximately 15%. For the same compound, the inhibition at 20 µM on recombinant PCSK9 [2] (Huh-7, 20 uM compound) is approximately 20%.
For the compound `Cc1cc2c(cc1-c1ccccc1F)CNCC2` [Compound 2, 7-(2-fluorophenyl)-6-methyl-1,2,3,4-tetrahydroisoquinoline], on recombinant PCSK9 [1], the inhibition at 0.313 µM was approximately 50% and the inhibition at 10 µM is more than 100%. Besides, the inhibition at 5 µM at recombinant PCSK9 [2] is approximately 19%.
In the case of `Cc1cc(-c2ccccc2F)cc2c1CCNC2` [Compound 3, 7-(2-fluorophenyl)-5-methyl-1,2,3,4-tetrahydroisoquinoline], on recombinant PCSK9 [1], the inhibition at 1.25 µM was approximately 42% and the inhibition at 10 µM was more than 100%.
`Cc1cc(-c2ccccc2F)cc2c1CCNC2=O` [Compound 4, 7-(2-fluorophenyl)-5-methyl-3,4-dihydroisoquinolin-1(2H)-one]: the inhibition at 20 µM at recombinant PCSK9 [1] (20 µM compound) was approximately 18%. Besides, the inhibition at 5 µM on recombinant PCSK9 [2] is approximately 10%.
For the compound `Cc1cc2c(cc1-c1ccccc1F)C(=O)NCC2` [Compound 5, 7-(2-fluorophenyl)-6-methyl-3,4-dihydroisoquinolin-1(2H)-one], the inhibition at 1.25 µM on recombinant PCSK9 [1] was approximately 33%. The inhibition at 10 µM at recombinant PCSK9 [2] (Huh-7, 10 uM compound) was approximately 10%.

(Values after patent US11945782B2, “Composition and methods of use of tetrahydroisoquinoline small molecules to bind and modulate PCSK9 protein activity” (SRX CARDIO, LLC, priority 2015, dated 2024).)
